# Laboratory results: PMC11396667, “Design, Synthesis, and Anticancer and Antibacterial Activities of Quinoline-5-Sulfonamides” (Molecules, 2024)
# Key:
# [1] = system: Staphylococcus aureus ATCC 29213; experiment: MBC, agar aliquot subculture method, SA; assay type: cell-based; conditions: ATCC29213, 99.9% decrease in CFU, 24 h, 37 °C
# Text: (§1) The activities of the individual derivatives were expressed as minimum inhibitory concentrations (MICs) and minimum bactericidal concentrations (MBCs) and are shown in Table 3 together with the values of the antibiotics used as standards for comparison. […] MBC values of bactericidal compounds are indicated in bold in Table 3.
# (§2) For the above-mentioned strains/isolates, the agar aliquot subculture method was used as a test for bactericidal agents. After the MIC value determination, the inoculum was transferred to CaMH (Oxoid) for staphylococci, and BHI (Oxoid) for enterococci medium using a multipoint inoculator. The plates were incubated in a thermostat at 37 °C for 24 h. The lowest concentration of test compound at which ≤5 colonies were obtained was then evaluated as MBC, corresponding to a 99.9% decrease in CFU relative to the original inoculum.
# [2] = system: methicillin-resistant S. aureus SA 3202; experiment: MBC, agar aliquot subculture method, MRSA1; assay type: cell-based; conditions: Staphylococcus aureus; 99.9% decrease in CFU, 24 h, 37 °C
# Text: as §1, §2
# [3] = system: methicillin-resistant S. aureus SA 3202; experiment: MIC, microtitration broth method, MRSA1; assay type: cell-based; conditions: Staphylococcus aureus; 24 h, 37 °C, CaMH broth
# Text: (§3) Since there is a general decrease in immunity during the treatment of oncological patients, i.e., patients are more susceptible to infectious diseases, it is advantageous if anticancer agents show antimicrobial properties at the same time. Therefore, the effects of the compounds were also investigated against Gram-positive bacteria. For this purpose, the susceptible collection strains of aerobic Staphylococcus aureus ATCC 29213 and facultatively aerobic Enterococcus faecalis ATCC 29212 and resistant clinical isolates of methicillin-resistant S. aureus (MRSA) SA 3202, SA 630 carrying the mecA gene, and vancomycin-resistant isolates of E. faecalis (VRE) 342B, 368, and 725B carrying the vanA gene were selected. Thus, the selection of the studied bacterial strains was adopted following the CLSI ([…]) international reference methodologies.
# (§4) The in vitro antibacterial activity of the synthesized compounds was evaluated against representatives of multidrug-resistant bacteria, […] clinical isolates of methicillin-resistant S. aureus: clinical isolates of human origin, MRSA SA 3202, and MRSA SA 630 (National Institute of Public Health, Prague, Czech Republic), carrying the mecA gene. These two clinical isolates were classified as vancomycin-susceptible (but with a higher MIC of vancomycin equal to 2 μg/mL (VA2-MRSA). Vancomycin- and methicillin-susceptible S. aureus ATCC 29213 and vancomycin-susceptible Enterococcus faecalis ATCC 29212, obtained from the American Type Culture Collection, were used as the reference and quality control strains. Three vanA gene-carrying vancomycin-resistant isolates of E. faecalis (VRE 342B, VRE 368, VRE 725B) (Department of Infectious Diseases and Microbiology, Faculty of Veterinary Medicine, University of Veterinary Sciences Brno, Czech Republic) were provided by Oravcova et al..
# (§5) The minimum inhibitory concentrations (MICs) were evaluated by the microtitration broth method according to the CLSI, with some modifications. The compounds were dissolved in DMSO (Sigma, St. Louis, MO, USA) to obtain a concentration of […] and diluted in a microtitration plate in an appropriate medium, i.e., Cation-Adjusted Mueller–Hinton Broth (CaMH, Oxoid, Basingstoke, UK) for staphylococci, and Brain Heart Infusion Broth (BHI, Oxoid) for enterococci to reach the final concentration of 256–0.125 µg/mL. Microtiter plates were inoculated with test microorganisms so that the final concentration of bacterial cells was 10^5. Ampicillin, oxacillin, and ciprofloxacin (Sigma) were used as reference drugs. A drug-free control and a sterility control were included. The plates were incubated for 24 h at 37 °C for staphylococci and enterococci. […] The experiments were repeated three times.
# [4] = system: Enterococcus faecalis ATCC 29212; experiment: MIC, microtitration broth method, EF; assay type: cell-based; conditions: ATCC29212, 24 h, 37 °C, BHI broth
# Text: as §3, §4, §5
# [5] = system: Enterococcus faecalis ATCC 29212; experiment: MBC, agar aliquot subculture method, EF; assay type: cell-based; conditions: ATCC29212, 99.9% decrease in CFU, 24 h, 37 °C
# Text: as §1, §2
# [6] = system: methicillin-resistant S. aureus SA 630; experiment: MIC, microtitration broth method, MRSA2; assay type: cell-based; conditions: Staphylococcus aureus; 24 h, 37 °C, CaMH broth
# Text: as §3, §4, §5
# [7] = system: Staphylococcus aureus ATCC 29213; experiment: MIC, microtitration broth method, SA; assay type: cell-based; conditions: ATCC29213, 24 h, 37 °C, CaMH broth
# Text: as §3, §4, §5
# S. aureus ATCC 29213 = experiment: MTT assay of bacterial respiratory activity; assay type: cell-based, Staphylococcus aureus; conditions: S. aureus ATCC 29213
# Text: The MTT assay can be used to assess cell growth by measuring respiration. Bacterial cell respiratory activity (which is ultimately reflected in their viability) of less than 70% after exposure to the MIC values for each test compound is considered as a positive result for this test. This low level of cellular oxidative metabolism indicates inhibition of cell growth by inhibition of respiration. The lowest multiples of the MIC values by which inhibition of S. aureus ATCC 29213 viability [%] greater than 70% was achieved are shown in Table 4. […] Therefore, the antibacterial activity of the discussed compounds cannot be explained solely on the basis of respiration inhibition, so it is very difficult to draw a conclusion regarding the actual mechanism of action, since 8-HQs are multi-target agents, i.e., they affect several different targets at once (as discussed in the section dedicated to anticancer activity), which subsequently leads to the death of the treated resistant microorganisms.
# Compounds were prepared as previously stated and diluted in CaMH broth for S. aureus to achieve the desired final concentrations. S. aureus bacterial suspension in sterile distilled water at 0.5 McFarland was diluted 1:3. Inocula were added to each well by multi-inoculator. Diluted mycobacteria in broth free from inhibiting compounds were used as the growth control. All compounds were prepared in duplicate. Plates were incubated at 37 °C for 24 h for S. aureus. After the incubation period, 10% well volume of MTT (3-(4,5-dimethylthiazol-2-yl)-2,5-diphenyltetrazolium bromide) reagent (Sigma) was mixed into each well and incubated at 37 °C 1 h for S. aureus. Then, 100 µL of 17% sodium dodecyl sulphate in 40% dimethylformamide was added to each well. The plates were read at 570 nm. The absorbance readings from the cells grown in the presence of the tested compounds were compared with uninhibited cell growth to determine the relative percent inhibition. The percent inhibition was determined through MTT assay. The percent viability is calculated through the comparison of a measured value and that of the uninhibited control: % viability = OD570E/OD570P × 100, where OD570E is the reading from the compound-exposed cells, while OD570P is the reading from the uninhibited cells (positive control). Cytotoxic potential is determined by a percent viability of <70% [81, 82].
# [8] = system: methicillin-resistant S. aureus SA 630; experiment: MBC, agar aliquot subculture method, MRSA2; assay type: cell-based; conditions: Staphylococcus aureus; 99.9% decrease in CFU, 24 h, 37 °C
# Text: as §1, §2
# [9] = system: MDA-MB-231 (human breast adenocarcinoma) cells; experiment: WST-1 cell viability assay, MDA-MB-231; assay type: cell-based; conditions: WST-1, 72 h exposure, ± SD, n = 6
# Method: (§6) The synthesized compounds were tested using three cancer cell lines—human amelanotic melanoma (C-32), human breast adenocarcinoma (MDA-MB-231), and human lung adenocarcinoma (A549)—and, for comparison, normal human dermal fibroblasts (HFF-1). The WST-1 (water-soluble tetrazole salt) assay was used to evaluate the effect of the synthesized compounds on the viability of cultured cells.
# (§7) Compounds were evaluated for their antiproliferative activity using three cultured cell lines: C-32 (human amelanotic melanoma, ATCC, Manassas, VA, USA), A549 (human lung adenocarcinoma, ATCC, Manassas, VA, USA), MDA-MB-231 (human breast adenocarcinoma derived from metastatic site: pleural effusion, ATCC, Manassas, VA, USA), together with HFF-1 (normal human dermal fibroblasts, ATCC, Manassas, VA, USA). The cultured cells were kept at 37 °C and 5% CO2.
# (§8) Cells were seeded in 96-well plates at 5000/well in 100 μL of medium. After 24 h of incubation, the medium was replaced with a new one with the addition of the test substance. After 72 h, the following tests were performed: with crystal violet (determination of the number of adherent cells in the culture), the WST-1 test (determination of the relative number of living cells and their metabolic activity), and the LDH test (determination of the relative number of dead cells in cultures—cytotoxicity of the tested substance).
# (§9) WST-1 test: The WST-1 test (Roche Diagnostics, Mannheim, Germany) allows one to determine the relative number of cells in cultures. Absorbance is directly proportional to the number of cells and their metabolic activity. The absorbance measurement is performed at λ = 450 nm (reference wave 600 nm).
# [10] = system: HFF-1 (normal human dermal fibroblasts); experiment: WST-1 cell viability assay, normal HFF-1; assay type: cell-based; conditions: ± SD, n = 6
# Method: as §6, §7, §8, §9
# [11] = system: C-32 (human amelanotic melanoma) cells; experiment: WST-1 cell viability assay, C-32; assay type: cell-based; conditions: WST-1, 72 h exposure, ± SD, n = 6
# Method: as §6, §7, §8, §9
# [12] = system: A549 (human lung adenocarcinoma) cells; experiment: WST-1 cell viability assay, A549; assay type: cell-based; conditions: WST-1, 72 h exposure, ± SD, n = 6
# Method: as §6, §7, §8, §9
# [13] = system: methicillin-resistant S. aureus SA 3202; parameters: method as in PMID 25692135; conditions: isolate classified as vancomycin-susceptible (VA2-MRSA); ref [76]; cited from earlier work
# [14] = system: methicillin-resistant S. aureus SA 630; parameters: method as in PMID 25692135; conditions: isolate classified as vancomycin-susceptible (VA2-MRSA); ref [76]; cited from earlier work
smiles,measurement,setting,value
"CC1(C)S[C@@H]2[C@H](NC(=O)[C@H](N)c3ccccc3)C(=O)N2[C@H]1C(=O)O [AMP, ampicillin, reference compound]",MBC,[1],5.72 µM
same,MBC,[2],> 45.8 µM
same,MIC,[3],> 45.8 µM
same,MIC,[4],2.81 µM
same,MBC,[5],2.81 µM
same,MIC,[6],> 45.8 µM
same,MIC,[7],5.72 µM
same,Conc.: lowest multiple of MIC with at least 70% inhibition of respiratory activity,S. aureus ATCC 29213,16× MIC (>16× MBC)
same,MBC,[8],> 45.8 µM
"Cc1onc(-c2ccccc2)c1C(=O)N[C@@H]1C(=O)N2[C@@H]1SC(C)(C)[C@@H]2C(=O)O [OXA, oxacillin, reference compound]",MBC,[1],1.25 µM
same,MBC,[2],79.8 µM
same,MIC,[3],79.8 µM
same,MIC,[6],29.7 µM
same,MIC,[7],1.25 µM
same,MBC,[8],29.7 µM
"N.N.[Cl][Pt][Cl] [CPT, cisplatin, reference compound]",IC50,[9],10.3 ± 0.7 µM
same,IC50,"[10]; WST-1, 72 h exposure",26 ± 2 µM
same,IC50,[11],10.6 ± 0.5 µM
same,IC50,[12],17.3 ± 1.3 µM
"C=CCn1cc(CNS(=O)(=O)c2ccc(OC)c3ncccc23)nn1 [7a, N-[(1-Allyl-1H-1,2,3-triazol-4-yl)methyl]-8-methoxyquinoline-5-sulfonamide]",IC50,"[9]; Homo sapiens, MDA-MB-231",> 100 µM
same,IC50,[11]; Homo sapiens,> 100 µM
same,melting point,,159 to 161 °C
same,IC50,"[12]; Homo sapiens, A549",> 100 µM
"COc1ccc(S(=O)(=O)NCc2cn(-c3ccc(Cl)cc3)nn2)c2cccnc12 [7d, N-{[1-(4-Chlorophenyl)-1H-1,2,3-triazol-4-yl]methyl}-8-methoxyquinoline-5-sulfonamide]",IC50,"[9]; Homo sapiens, MDA-MB-231",> 100 µM
same,IC50,[11]; Homo sapiens,> 100 µM
same,melting point,,224 to 226 °C
same,IC50,"[12]; Homo sapiens, A549",> 100 µM
"COc1cccc2c1C(=O)c1c(O)c3c(c(O)c1C2=O)C[C@@](O)(C(=O)CO)C[C@@H]3O[C@H]1C[C@H](N)[C@H](O)[C@H](C)O1 [DOX, doxorubicin, reference compound]",IC50,"[9]; Homo sapiens, MDA-MB-231",0.6 ± 0.1 µM
same,IC50,"[10]; HFF-1, WST-1, 72 h exposure",1.4 ± 0.1 µM
same,IC50,[11]; Homo sapiens,0.3 ± 0.02 µM
same,IC50,"[12]; Homo sapiens, A549",1 ± 0.1 µM
"COc1ccc(S(=O)(=O)N(C)Cc2cn(Cc3ccccc3)nn2)c2cccnc12 [7g, N-Methyl-N-[(1-benzyl-1H-1,2,3-triazol-4-yl)methyl]-8-methoxyquinoline-5-sulfonamide]",IC50,"[9]; Homo sapiens, MDA-MB-231",> 100 µM
same,IC50,[11]; Homo sapiens,42.6 ± 3.4 µM
same,melting point,,214 to 216 °C
same,IC50,"[12]; Homo sapiens, A549",> 100 µM
CN[C@H](CC(C)C)C(=O)N[C@H]1C(=O)N[C@@H](CC(N)=O)C(=O)N[C@H]2C(=O)N[C@H]3C(=O)N[C@H](C(=O)N[C@H](C(=O)O)c4cc(O)cc(O)c4-c4cc3ccc4O)[C@H](O)c3ccc(c(Cl)c3)Oc3cc2cc(c3O[C@@H]2O[C@H](CO)[C@@H](O)[C@H](O)[C@H]2O[C@H]2C[C@](C)(N)[C@H](O)[C@H](C)O2)Oc2ccc(cc2Cl)[C@H]1O [vancomycin],"MIC of vancomycin, MRSA SA 3202",[13],2 µg/mL
same,"MIC of vancomycin, MRSA SA 630",[14],2 µg/mL
